Here are results for one substance from article PMC11475408, “All‐Inorganic Polyoxometalates Act as Superchaotropic Membrane Carriers” (Advanced Materials (Deerfield Beach, Fla.), 2023).

The nature of the assay: Membrane disruption of liposomes by POM alone (CF fluorescence, DLS). It is filed as biochemical. The procedure: It should be noted that the addition of POMs alone (without cargo) retained the stability of the liposomes in the studied concentration range (up to 100 µM), that is, neither an increase in CF fluorescence nor changes in size distribution as obtained by dynamic light scattering experiments (DLS, see Figure S4, Supporting Information) were observed, which would have signaled membrane rupture. These negative controls allowed us to proceed to the carrier experiments, with added cargo.
DLS experiments of the vesicles were carried out on a Malvern Instruments DTS Nano 2000 Zeta‐Sizer. A POM concentration of 100 µM was chosen as default, since this is the highest concentration at which membrane transport was evaluated. The cargo concentration was set to be same as in the transport experiments, namely 10 µM for heptaarginine, 1 µM for protamine, and 0.1 µM for polyarginine. Note that the POMs themselves, with a size of ≈1 nm, fall below the detection limit (>10 nm) of the DLS instrument.
Figure S3. Transport activity, Y, for polyarginine (0.1 µM) in EYPC[…]CF liposomes as a function of the concentration of the different evaluated POMs. Solid lines correspond to the resulting fit with the Hill equation. Blue squares are data obtained at neutral pH, and red stars data obtained at acidic pH.
Table S4. Membrane transport parametersa) of active POMs at neutralb) and acidicc) pH.
HeptaArgd) Protaminee) PolyArgf) carrier pH Hydrolysis/Stability
Ymax [%]g) EC50h) [µM] E i) Ymax [%] EC50 [µM] E Ymax [%] EC50 [µM] E […]
Figure S5. Transport kinetics (left pannels), dose response curves (middle pannels) for cargo transport, and size distribution (by DLS, right pannels) for [PW12]3‒ (top) and [SiW12]4‒ (bottom), measured with EYPC[…]CF liposomes at pH 7.4, but preserving the POM solution at pH 1.2 before addition. As shown in panel a, the addition of [PW12]3‒ alone gave a fluorescence increase, pointing to membrane disruption, which was confirmed by DLS (panel c). […]

As for Na3[α‐P^VW^VI 12O40]·nH2O [[PW12]^3‒], the “Membrane disruption with POM solution kept at pH 1.2” value (POM alone added to liposomes, POM solution kept at pH 1.2, CF fluorescence) was “strong interaction and membrane disruption”. In addition, for the setting “higher than 100 µM POM, 10 mM Tris, 107 mM NaCl, pH 7.4”, the “Vesicle lysis at higher concentrations” value was “led to vesicle lysis”.
